These results are taken from US20250353891A1 (MEDIMMUNE LIMITED, priority 2022, published 2025).

The structures appear in SMILES notation. Read-outs that look alike come from different tables or passages of the source. Starred links: 1 amine or outer side, 2 acyl side, 3 side chain; linkers in the order of their positions; H or OH if unused. Non-standard residues stand in square brackets, D forms with d. Residues, ends and D or L forms follow the SMILES beside them. Groups on a side chain read outwards from the residue. *: point of attachment. C20 diacid = O=C(O)CCCCCCCCCCCCCCCCCCC(=O)*; C18 diacid = O=C(O)CCCCCCCCCCCCCCCCC(=O)*; γGlu = O=C(O)[C@H](CCC(=O)[*:2])N[*:1]; Palmitoyl = CCCCCCCCCCCCCCCC(=O)*; αMeF = C[C@](N)(Cc1ccccc1)C(=O)O; Myristoyl = CCCCCCCCCCCCCC(=O)*; PEG2 = NCCOCCOCCC(=O)O; AEEA = NCCOCCOCC(=O)O; Aib = CC(C)(N)C(=O)O

The term EC50 denotes the concentration giving half of the maximal effect.

The target of experiment [1] is human glucagon receptor (hGCGR) (Homo sapiens, UniProt P47871). The experiment is described as follows: cAMP production (HTRF) in CHO cells expressing hGCGR. The experiment is classed as cell-based. Set-up: expressed in transfected cells. Particulars: geometric mean. The gist of the method:
(§1)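 Potency values represent EC50 from 4-parameter logistic curves of HTRF % Delta F signal. Receptor-expressing CHO cells (hGCGR 2×10^5 cells/mL, hGLP-1R 1×10^5 cells/mL) were exposed for 30 min at room temperature before two-step cAMP detection.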

The target in experiment [2] is human GLP-1 receptor (hGLP-1R) (Homo sapiens, UniProt P43220). Briefly: cAMP production (HTRF) in CHO cells expressing hGLP-1R. The format is cell-based. The arrangement: expressed in transfected cells. Particulars: for % Relative Potency Ratio: % GLP-1R activity relative to GLP-1 / % GlucR activity relative to glucagon. The gist of the method:
as §1
In general terms: Changes in cAMP serve as a functional read-out for many G protein-coupled receptors.

The mark [3] stands for this setting: Table 7, peptides modified at position 20, cAMP in CHO hGCGR cells, read-out: hGluc-R EC50.
Where [4] appears, read: Table 7, peptides modified at position 20, cAMP in CHO hGLP-1R cells, geometric mean, read-out: hGLP-1R EC50.
The mark [5] stands for this setting: Table 6, peptides modified at position 17, cAMP in CHO hGCGR cells, read-out: hGluc-R EC50.

Chain of human GLP-1 receptor (hGLP-1R) (P43220 24-463): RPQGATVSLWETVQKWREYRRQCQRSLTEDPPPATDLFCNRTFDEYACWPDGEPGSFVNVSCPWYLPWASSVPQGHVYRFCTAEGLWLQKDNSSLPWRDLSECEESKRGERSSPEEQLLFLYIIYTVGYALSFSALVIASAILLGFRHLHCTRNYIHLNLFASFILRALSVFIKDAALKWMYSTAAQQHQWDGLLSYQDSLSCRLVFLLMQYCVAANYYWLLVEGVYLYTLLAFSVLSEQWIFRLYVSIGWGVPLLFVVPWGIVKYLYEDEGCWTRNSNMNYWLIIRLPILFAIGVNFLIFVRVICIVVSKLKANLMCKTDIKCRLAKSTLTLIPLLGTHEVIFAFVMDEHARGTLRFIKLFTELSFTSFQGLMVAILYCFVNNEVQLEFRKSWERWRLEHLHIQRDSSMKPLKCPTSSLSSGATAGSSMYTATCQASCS
Chain of human glucagon receptor (hGCGR) (P47871 26-477): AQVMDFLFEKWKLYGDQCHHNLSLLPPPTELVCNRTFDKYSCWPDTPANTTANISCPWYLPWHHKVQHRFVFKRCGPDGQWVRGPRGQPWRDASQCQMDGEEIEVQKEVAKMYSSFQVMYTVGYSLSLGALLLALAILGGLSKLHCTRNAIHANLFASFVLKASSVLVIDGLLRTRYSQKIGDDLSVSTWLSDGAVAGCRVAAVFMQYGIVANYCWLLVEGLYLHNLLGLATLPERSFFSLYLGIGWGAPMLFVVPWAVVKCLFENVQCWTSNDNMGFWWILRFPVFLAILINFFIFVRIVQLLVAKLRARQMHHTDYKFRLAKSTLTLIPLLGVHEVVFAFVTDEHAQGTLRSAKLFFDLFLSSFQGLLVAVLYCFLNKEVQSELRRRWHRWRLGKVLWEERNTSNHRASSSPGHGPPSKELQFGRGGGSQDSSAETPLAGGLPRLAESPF

Regarding `CC[C@H](C)[C@H](NC(=O)C(C)(C)NC(=O)[C@H](CCC(N)=O)NC(=O)[C@@H](NC(=O)[C@](C)(Cc1ccccc1)NC(=O)[C@H](CC(=O)O)NC(=O)[C@H](CCCCNC(=O)COCCOCCNC(=O)CC[C@H](NC(=O)CCCCCCCCCCCCCCCCCCC(=O)O)C(=O)O)NC(=O)[C@H](C)NC(=O)[C@H](C)NC(=O)[C@H](CCCNC(=N)N)NC(=O)[C@H](CO)NC(=O)[C@H](CC(=O)O)NC(=O)[C@H](CC(C)C)NC(=O)[C@](C)(Cc1ccccc1)NC(=O)[C@H](CCCCN)NC(=O)[C@H](CO)NC(=O)[C@@H](NC(=O)[C@H](CC(=O)O)NC(=O)[C@H](CO)NC(=O)[C@@H](NC(=O)[C@](C)(Cc1ccccc1)NC(=O)[C@H](CO)NC(=O)CNC(=O)[C@H](Cc1c[nH]cn1)NC(=O)C(C)(C)NC(=O)[C@@H](N)Cc1c[nH]cn1)[C@@H](C)O)C(C)C)C(C)C)C(=O)N[C@@H](C)C(=O)N[C@@H](CC(N)=O)C(=O)N[C@H](C(N)=O)[C@@H](C)O` [Peptide 268] (H-H[Aib]HGS[αMeF]TSDVSK[αMeF]LDSRAAK([AEEA-γGlu-C20 diacid])D[αMeF]VQ[Aib]IANT-NH2; N-terminus assumed), the results for the EC50 in experiment [1] (setting [3]) and in experiment [2] (setting [4]) were 29.3 pM and 39.5 pM, respectively. Besides, in experiment [2] (Table 7), the “% Relative Potency Ratio” value came to 1.5.

`CC[C@H](C)[C@H](NC(=O)C(C)(C)NC(=O)[C@H](CCC(N)=O)NC(=O)[C@@H](NC(=O)[C@](C)(Cc1ccccc1)NC(=O)[C@H](CC(=O)O)NC(=O)[C@H](CCCCNC(=O)COCCOCCNC(=O)COCCOCCNC(=O)CC[C@H](NC(=O)CCCCCCCCCCCCCCCCC(=O)O)C(=O)O)NC(=O)[C@H](C)NC(=O)[C@H](C)NC(=O)[C@H](CCCNC(=N)N)NC(=O)[C@H](CO)NC(=O)[C@H](CC(=O)O)NC(=O)[C@H](CC(C)C)NC(=O)[C@](C)(Cc1ccccc1)NC(=O)[C@H](CCCCN)NC(=O)[C@H](CO)NC(=O)[C@@H](NC(=O)[C@H](CC(=O)O)NC(=O)[C@H](CO)NC(=O)[C@@H](NC(=O)[C@](C)(Cc1ccccc1)NC(=O)[C@H](CO)NC(=O)CNC(=O)[C@H](Cc1c[nH]cn1)NC(=O)[C@H](CO)NC(=O)[C@@H](N)Cc1c[nH]cn1)[C@@H](C)O)C(C)C)C(C)C)C(=O)N[C@@H](C)C(=O)N[C@@H](CC(N)=O)C(=O)N[C@H](C(N)=O)[C@@H](C)O` [Peptide 284] (H-HSHGS[αMeF]TSDVSK[αMeF]LDSRAAK([AEEA-AEEA-γGlu-C18 diacid])D[αMeF]VQ[Aib]IANT-NH2): the EC50 amounted to 119 pM in experiment [1] (setting [3]) and 43.4 pM in experiment [2] (setting [4]). For the same compound, in experiment [2] (Table 7), the “% Relative Potency Ratio” value turned out to be 5.4.

With `CCCCCCCCCCCCCC(=O)N[C@@H](CCC(=O)NCCOCCOCCC(=O)NCCOCCOCCC(=O)NCCCC[C@H](NC(=O)[C@H](CO)NC(=O)[C@H](CC(=O)O)NC(=O)[C@H](CC(C)C)NC(=O)[C@@H](NC(=O)[C@H](CCCCN)NC(=O)[C@H](CO)NC(=O)[C@@H](NC(=O)[C@H](CC(=O)O)NC(=O)[C@H](CO)NC(=O)[C@@H](NC(=O)[C@](C)(Cc1ccccc1)NC(=O)[C@H](CO)NC(=O)CNC(=O)[C@H](CCC(N)=O)NC(=O)C(C)(C)NC(=O)[C@@H](N)Cc1c[nH]cn1)[C@@H](C)O)C(C)C)[C@@H](C)CC)C(=O)N[C@@H](C)C(=O)N[C@@H](C)C(=O)N[C@@H](CCC(N)=O)C(=O)N[C@@H](CC(=O)O)C(=O)N[C@@](C)(Cc1ccccc1)C(=O)N[C@H](C(=O)N[C@@H](CCC(N)=O)C(=O)NC(C)(C)C(=O)N[C@H](C(=O)N[C@H](C(=O)N[C@@H](CC(N)=O)C(=O)N[C@H](C(N)=O)[C@@H](C)O)[C@@H](C)CC)[C@@H](C)CC)C(C)C)C(=O)O` [Peptide 129] (H-H[Aib]QGS[αMeF]TSDVSKILDSK([PEG2-PEG2-γGlu-Myristoyl])AAQD[αMeF]VQ[Aib]IINT-NH2), the EC50 in experiment [1] (setting [5]) turned out to be 4.1 pM. For the same compound, in experiment [2] (Table 6), the “% Relative Potency Ratio” value is 17.6.

On to `CCCCCCCCCCCCCCCC(=O)N[C@@H](CCC(=O)NCCOCCOCCC(=O)NCCOCCOCCC(=O)NCCCC[C@H](NC(=O)[C@H](CO)NC(=O)[C@H](CC(=O)O)NC(=O)[C@H](CC(C)C)NC(=O)[C@@H](NC(=O)[C@H](CCCCN)NC(=O)[C@H](CO)NC(=O)[C@@H](NC(=O)[C@H](CC(=O)O)NC(=O)[C@H](CO)NC(=O)[C@@H](NC(=O)[C@](C)(Cc1ccccc1)NC(=O)[C@H](CO)NC(=O)CNC(=O)[C@H](CCC(N)=O)NC(=O)C(C)(C)NC(=O)[C@@H](N)Cc1c[nH]cn1)[C@@H](C)O)C(C)C)[C@@H](C)CC)C(=O)N[C@@H](C)C(=O)N[C@@H](C)C(=O)N[C@@H](CCC(N)=O)C(=O)N[C@@H](CC(=O)O)C(=O)N[C@@](C)(Cc1ccccc1)C(=O)N[C@H](C(=O)N[C@@H](CCC(N)=O)C(=O)NC(C)(C)C(=O)N[C@H](C(=O)N[C@H](C(=O)N[C@@H](CC(N)=O)C(=O)N[C@H](C(N)=O)[C@@H](C)O)[C@@H](C)CC)[C@@H](C)CC)C(C)C)C(=O)O` [Peptide 128] (H-H[Aib]QGS[αMeF]TSDVSKILDSK([PEG2-PEG2-γGlu-Palmitoyl])AAQD[αMeF]VQ[Aib]IINT-NH2; N-terminus assumed), for which the EC50 in experiment [1] (setting [5]) worked out at 4.69 pM. In experiment [2] (Table 6), the “% Relative Potency Ratio” value was found to be 11.8.

Take `CC[C@H](C)[C@H](NC(=O)[C@H](Cc1c[nH]c2ccccc12)NC(=O)[C@H](CCCCNC(=O)COCCOCCNC(=O)COCCOCCNC(=O)CC[C@H](NC(=O)CCCCCCCCCCCCCCCCC(=O)O)C(=O)O)NC(=O)[C@@H](NC(=O)[C@H](Cc1ccccc1)NC(=O)[C@H](CC(=O)O)NC(=O)[C@H](CCC(N)=O)NC(=O)[C@H](C)NC(=O)[C@H](C)NC(=O)[C@H](CCC(N)=O)NC(=O)[C@H](CO)NC(=O)[C@H](CC(=O)O)NC(=O)[C@H](CC(C)C)NC(=O)[C@](C)(Cc1ccccc1)NC(=O)[C@H](CCCCN)NC(=O)[C@H](CO)NC(=O)[C@@H](NC(=O)[C@H](CC(=O)O)NC(=O)[C@H](CO)NC(=O)[C@@H](NC(=O)[C@](C)(Cc1ccccc1)NC(=O)[C@H](CO)NC(=O)CNC(=O)[C@H](CCC(N)=O)NC(=O)C(C)(C)NC(=O)[C@@H](N)Cc1c[nH]cn1)[C@@H](C)O)C(C)C)C(C)C)C(=O)N[C@@H](C)C(=O)N[C@@H](CC(N)=O)C(=O)N[C@H](C(N)=O)[C@@H](C)O` [Peptide 348] (H-H[Aib]QGS[αMeF]TSDVSK[αMeF]LDSQAAQDFVK([AEEA-AEEA-γGlu-C18 diacid])WIANT-NH2): the EC50 worked out at 4110 pM in experiment [1] (hGluc-R EC50 (pM), cAMP, CHO cells, 0.1% BSA) and 70.1 pM in experiment [2] (hGLP-1R EC50 (pM)).

`CC(C)C[C@H](NC(=O)[C@H](Cc1c[nH]c2ccccc12)NC(=O)[C@H](CCCNC(=N)N)NC(=O)[C@@H](NC(=O)[C@H](Cc1ccccc1)NC(=O)[C@H](CC(=O)O)NC(=O)[C@H](CCC(N)=O)NC(=O)[C@H](C)NC(=O)[C@H](CCCNC(=N)N)NC(=O)[C@H](CCCCNC(=O)COCCOCCNC(=O)COCCOCCNC(=O)CC[C@H](NC(=O)CC[C@H](NC(=O)CCCCCCCCCCCCCCCCC(=O)O)C(=O)O)C(=O)O)NC(=O)[C@H](CCCCN)NC(=O)[C@H](CC(=O)O)NC(=O)[C@H](CC(C)C)NC(=O)[C@](C)(Cc1ccccc1)NC(=O)[C@H](CCCCN)NC(=O)[C@H](CO)NC(=O)[C@@H](NC(=O)[C@H](CC(=O)O)NC(=O)[C@H](CO)NC(=O)[C@@H](NC(=O)[C@H](Cc1ccccc1)NC(=O)[C@@H](NC(=O)CNC(=O)[C@H](CCC(N)=O)NC(=O)C(C)(C)NC(=O)[C@@H](N)Cc1c[nH]cn1)[C@@H](C)O)[C@@H](C)O)C(C)C)C(C)C)C(=O)N[C@@H](CC(C)C)C(=O)N[C@@H](CCC(=O)O)C(=O)NC(C)(C)C(=O)NCC(=O)O` [Peptide 450] (H-H[Aib]QGTFTSDVSK[αMeF]LDKK([AEEA-AEEA-γGlu-γGlu-C18 diacid])RAQDFVRWLLE[Aib]G-OH; N-terminus assumed): the EC50 is 57.8 pM in experiment [1] (setting [5]) and 57.3 pM in experiment [2] (Table 6, peptides modified at position 17, cAMP in CHO hGLP-1R cells, geometric mean, read-out: hGLP-1R EC50). For the same compound, in experiment [2] (Table 6), the “% Relative Potency Ratio” value is on record as 2.0.

On to `CC[C@H](C)[C@H](NC(=O)[C@H](Cc1c[nH]c2ccccc12)NC(=O)[C@H](CCC(N)=O)NC(=O)[C@@H](NC(=O)[C@H](Cc1ccccc1)NC(=O)[C@H](CC(=O)O)NC(=O)[C@H](CCCCNC(=O)CC[C@H](NC(=O)CCCCCCCCCCCCCCCCC(=O)O)C(=O)O)NC(=O)[C@H](C)NC(=O)[C@H](C)NC(=O)[C@H](CCCNC(=N)N)NC(=O)[C@H](CO)NC(=O)[C@H](CC(=O)O)NC(=O)[C@H](CC(C)C)NC(=O)[C@](C)(Cc1ccccc1)NC(=O)[C@H](CCCCN)NC(=O)[C@H](CO)NC(=O)[C@@H](NC(=O)[C@H](CC(=O)O)NC(=O)[C@H](CO)NC(=O)[C@@H](NC(=O)[C@H](Cc1ccccc1)NC(=O)[C@@H](NC(=O)CNC(=O)[C@H](CCC(N)=O)NC(=O)C(C)(C)NC(=O)[C@@H](N)Cc1c[nH]cn1)[C@@H](C)O)[C@@H](C)O)C(C)C)C(C)C)C(=O)N[C@@H](C)C(=O)N[C@@H](CC(N)=O)C(=O)N[C@H](C(=O)O)[C@@H](C)O` [Peptide 342], for which the EC50 in experiment [1] (setting [3]) amounted to 4830 pM; in experiment [2] (setting [4]), 220 pM. In experiment [2] (Table 7), the “% Relative Potency Ratio” value was 43.4.
